# From patent publication US20040087633A1, “Methylidene oxazolidinone compound and preparation method thereof” (Korea Institute of Science and Technology, priority 2002, published 2004)
# Where two headings read alike, the source gives them in different places.
# Experiments:
# Experiment in all cases: Anti-microbial activity test in vitro (agar dilution MIC)
# E. faecium C6301 = format: cell-based; conditions: for MIC: Enterococcus faecium, read-out: Minimum inhibition concentration (MIC)
# Protocol: (§1) Anti-microbial activity test in vitro
# (§2) Strains were cultivated for 18 hours at 37° C. in Agar Dilution method using Mueller Hinton Agar, and then plane plates inoculated with the strains by diluting them two times gradually were aligned in a row. Minimum inhibition concentration (MIC, μg/ml) for the representative compounds of the present invention, Linezolid (LZD) and vancomycin (VAN) were decided through visual observation, and the results are shown in the following tables 2 and 3.
# S. aureus ATCC 29213 = format: cell-based; conditions: Agar Dilution method, Mueller Hinton Agar, 18 hours at 37° C.
# Protocol: as §1, §2
# E. faecalis ATCC29212 = format: cell-based; conditions: for MIC: Enterococcus faecalis, read-out: Minimum inhibition concentration (MIC)
# Protocol: as §1, §2
# E. faecalis C6291 = format: cell-based; conditions: for MIC: Enterococcus faecalis, read-out: Minimum inhibition concentration (MIC)
# Protocol: as §1, §2
# S. epidermidis ATCC12228 = format: cell-based; conditions: for MIC: Staphylococcus epidermidis, read-out: Minimum inhibition concentration (MIC)
# Protocol: as §1, §2
# S. epidermidis C2230 = format: cell-based; conditions: for MIC: Staphylococcus epidermidis, read-out: Minimum inhibition concentration (MIC)
# Protocol: as §1, §2
# S. pyogenes C6003 = format: cell-based; conditions: for MIC: Streptococcus pyogenes, read-out: Minimum inhibition concentration (MIC)
# Protocol: as §1, §2
# E. faecium C2252 = format: cell-based; conditions: for MIC: Enterococcus faecium, read-out: Minimum inhibition concentration (MIC)
# Protocol: as §1, §2
# S. epidermidis C2235 = format: cell-based; conditions: for MIC: Staphylococcus epidermidis, read-out: Minimum inhibition concentration (MIC)
# Protocol: as §1, §2
# E. faecalis C6288 = format: cell-based; conditions: for MIC: Enterococcus faecalis, read-out: Minimum inhibition concentration (MIC)
# Protocol: as §1, §2
# S. pyogenes C6012 = format: cell-based; conditions: for MIC: Streptococcus pyogenes, read-out: Minimum inhibition concentration (MIC)
# Protocol: as §1, §2
# S. pyogenes ATCC8668 = format: cell-based; conditions: for MIC: Streptococcus pyogenes, read-out: Minimum inhibition concentration (MIC)
# Protocol: as §1, §2
# VRE C6487 = format: cell-based, Enterococcus faecium; conditions: for MIC: Enterococcus, read-out: Minimum inhibition concentration (MIC)
# Protocol: as §1, §2
# VRE C6488 = format: cell-based, Enterococcus faecium; conditions: for MIC: Enterococcus, read-out: Minimum inhibition concentration (MIC)
# Protocol: as §1, §2
# MRSA C5100 = format: cell-based, Staphylococcus aureus; conditions: for MIC: Staphylococcus aureus, read-out: Minimum inhibition concentration (MIC)
# Protocol: as §1, §2
# MRSA C6068 = format: cell-based, Staphylococcus aureus; conditions: for MIC: Staphylococcus aureus, read-out: Minimum inhibition concentration (MIC)
# Protocol: as §1, §2
# MSSA C7142 = format: cell-based, Staphylococcus aureus; conditions: for MIC: Staphylococcus aureus, read-out: Minimum inhibition concentration (MIC)
# Protocol: as §1, §2
# MRSA C2207 = format: cell-based, Staphylococcus aureus; conditions: for MIC: Staphylococcus aureus, read-out: Minimum inhibition concentration (MIC)
# Protocol: as §1, §2
# CRSA C6043 = format: cell-based, Staphylococcus aureus; conditions: for MIC: Staphylococcus aureus, read-out: Minimum inhibition concentration (MIC)
# Protocol: as §1, §2
# CRSA C1062 = format: cell-based, Staphylococcus aureus; conditions: for MIC: Staphylococcus aureus, read-out: Minimum inhibition concentration (MIC)
# Protocol: as §1, §2
# MSSA C2214 = format: cell-based, Staphylococcus aureus; conditions: for MIC: Staphylococcus aureus, read-out: Minimum inhibition concentration (MIC)
# Protocol: as §1, §2
# [1] = E. faecium C6301, Agar Dilution method, Mueller Hinton Agar, 18 hours at 37° C.
# [2] = E. faecalis ATCC29212, Agar Dilution method, Mueller Hinton Agar, 18 hours at 37° C.
# [3] = E. faecalis C6291, Agar Dilution method, Mueller Hinton Agar, 18 hours at 37° C.
# [4] = S. epidermidis ATCC12228, Agar Dilution method, Mueller Hinton Agar, 18 hours at 37° C.
# [5] = S. epidermidis C2230, Agar Dilution method, Mueller Hinton Agar, 18 hours at 37° C.
# [6] = S. pyogenes C6003, Agar Dilution method, Mueller Hinton Agar, 18 hours at 37° C.
# [7] = E. faecium C2252, Agar Dilution method, Mueller Hinton Agar, 18 hours at 37° C.
# [8] = S. epidermidis C2235, Agar Dilution method, Mueller Hinton Agar, 18 hours at 37° C.
# [9] = E. faecalis C6288, Agar Dilution method, Mueller Hinton Agar, 18 hours at 37° C.
# [10] = S. pyogenes C6012, Agar Dilution method, Mueller Hinton Agar, 18 hours at 37° C.
# [11] = S. pyogenes ATCC8668, Agar Dilution method, Mueller Hinton Agar, 18 hours at 37° C.
# [12] = VRE C6487, Agar Dilution method, Mueller Hinton Agar, 18 hours at 37° C.
# [13] = VRE C6488, Agar Dilution method, Mueller Hinton Agar, 18 hours at 37° C.
# [14] = MRSA C5100, Agar Dilution method, Mueller Hinton Agar, 18 hours at 37° C.
# [15] = MRSA C6068, Agar Dilution method, Mueller Hinton Agar, 18 hours at 37° C.
# [16] = MSSA C7142, Agar Dilution method, Mueller Hinton Agar, 18 hours at 37° C.
# [17] = MRSA C2207, Agar Dilution method, Mueller Hinton Agar, 18 hours at 37° C.
# [18] = CRSA C6043, Agar Dilution method, Mueller Hinton Agar, 18 hours at 37° C.
# [19] = CRSA C1062, Agar Dilution method, Mueller Hinton Agar, 18 hours at 37° C.
# [20] = MSSA C2214, Agar Dilution method, Mueller Hinton Agar, 18 hours at 37° C.
compound,measurement,setting,value
"CC(=O)C=C1CCN(c2ccc(N3C[C@H](CNC(C)=O)OC3=O)cc2F)CC1 [Compound 12, N-[[(5S)-3-[3-fluoro-4-(4-methylcarbonylmethylidene-piperidinyl)phenyl]-2-oxo-5-oxazolidinyl]methyl]acetamide]",Minimum inhibition concentration (MIC),E. faecium C6301; [1],8 µg/mL
same,Minimum inhibition concentration (MIC),S. aureus ATCC 29213,8 µg/mL
same,Minimum inhibition concentration (MIC),E. faecalis ATCC29212; [2],16 µg/mL
same,Minimum inhibition concentration (MIC),E. faecalis C6291; [3],16 µg/mL
same,Minimum inhibition concentration (MIC),S. epidermidis ATCC12228; [4],1 µg/mL
same,Minimum inhibition concentration (MIC),S. epidermidis C2230; [5],8 µg/mL
same,Minimum inhibition concentration (MIC),S. pyogenes C6003; [6],0.2 µg/mL
same,Minimum inhibition concentration (MIC),E. faecium C2252; [7],8 µg/mL
same,Minimum inhibition concentration (MIC),S. epidermidis C2235; [8],8 µg/mL
same,Minimum inhibition concentration (MIC),E. faecalis C6288; [9],16 µg/mL
same,Minimum inhibition concentration (MIC),S. pyogenes C6012; [10],16 µg/mL
same,Minimum inhibition concentration (MIC),S. pyogenes ATCC8668; [11],8 µg/mL
same,Minimum inhibition concentration (MIC),VRE C6487; [12],2 µg/mL
same,Minimum inhibition concentration (MIC),VRE C6488; [13],8 µg/mL
same,Minimum inhibition concentration (MIC),MRSA C5100; [14],8 µg/mL
same,Minimum inhibition concentration (MIC),MRSA C6068; [15],16 µg/mL
same,Minimum inhibition concentration (MIC),MSSA C7142; [16],16 µg/mL
same,Minimum inhibition concentration (MIC),MRSA C2207; [17],8 µg/mL
same,Minimum inhibition concentration (MIC),CRSA C6043; [18],16 µg/mL
same,Minimum inhibition concentration (MIC),CRSA C1062; [19],8 µg/mL
same,Minimum inhibition concentration (MIC),MSSA C2214; [20],16 µg/mL
"CCOC(=O)C=C1CCN(c2ccc(N3C[C@H](CNC(C)=O)OC3=O)cc2F)CC1 [Compound 11, N-[[(5S)-3-[3-fluoro-4-(4-ethoxycarbonylmethylidene-piperidinyl)phenyl]-2-oxo-5-oxazolidinyl]methyl]acetamide]",Minimum inhibition concentration (MIC),E. faecium C6301; [1],8 µg/mL
same,Minimum inhibition concentration (MIC),S. aureus ATCC 29213,16 µg/mL
same,Minimum inhibition concentration (MIC),E. faecalis ATCC29212; [2],8 µg/mL
same,Minimum inhibition concentration (MIC),E. faecalis C6291; [3],8 µg/mL
same,Minimum inhibition concentration (MIC),S. epidermidis ATCC12228; [4],2 µg/mL
same,Minimum inhibition concentration (MIC),S. epidermidis C2230; [5],8 µg/mL
same,Minimum inhibition concentration (MIC),S. pyogenes C6003; [6],8 µg/mL
same,Minimum inhibition concentration (MIC),E. faecium C2252; [7],8 µg/mL
same,Minimum inhibition concentration (MIC),S. epidermidis C2235; [8],4 µg/mL
same,Minimum inhibition concentration (MIC),E. faecalis C6288; [9],8 µg/mL
same,Minimum inhibition concentration (MIC),S. pyogenes C6012; [10],2 µg/mL
same,Minimum inhibition concentration (MIC),S. pyogenes ATCC8668; [11],2 µg/mL
same,Minimum inhibition concentration (MIC),VRE C6487; [12],8 µg/mL
same,Minimum inhibition concentration (MIC),VRE C6488; [13],8 µg/mL
same,Minimum inhibition concentration (MIC),MRSA C5100; [14],8 µg/mL
same,Minimum inhibition concentration (MIC),MRSA C6068; [15],8 µg/mL
same,Minimum inhibition concentration (MIC),MSSA C7142; [16],16 µg/mL
same,Minimum inhibition concentration (MIC),MRSA C2207; [17],8 µg/mL
same,Minimum inhibition concentration (MIC),CRSA C6043; [18],8 µg/mL
same,Minimum inhibition concentration (MIC),CRSA C1062; [19],8 µg/mL
same,Minimum inhibition concentration (MIC),MSSA C2214; [20],16 µg/mL
"CN[C@H](CC(C)C)C(=O)N[C@H]1C(=O)N[C@@H](CC(N)=O)C(=O)N[C@H]2C(=O)N[C@H]3C(=O)N[C@H](C(=O)N[C@H](C(=O)O)c4cc(O)cc(O)c4-c4cc3ccc4O)[C@H](O)c3ccc(c(Cl)c3)Oc3cc2cc(c3O[C@@H]2O[C@H](CO)[C@@H](O)[C@H](O)[C@H]2O[C@H]2C[C@](C)(N)[C@H](O)[C@H](C)O2)Oc2ccc(cc2Cl)[C@H]1O [VAN, vancomycin, reference compound]",MIC,"E. faecium C6301; C6301, 18 h",1 µg/mL
same,MIC,"E. faecalis ATCC29212; ATCC29212, 18 h",4 µg/mL
same,MIC,"E. faecalis C6291; C6291, 18 h",2 µg/mL
same,MIC,"S. epidermidis ATCC12228; ATCC12228, 18 h",1 µg/mL
same,MIC,"S. epidermidis C2230; C2230, 18 h",2 µg/mL
same,MIC,"S. pyogenes C6003; C6003, 18 h",4 µg/mL
same,MIC,"E. faecium C2252; C2252, 18 h",1 µg/mL
same,MIC,"S. epidermidis C2235; C2235, 18 h",2 µg/mL
same,MIC,"E. faecalis C6288; C6288, 18 h",2 µg/mL
same,MIC,"S. pyogenes C6012; C6012, 18 h",0.5 µg/mL
same,MIC,"S. pyogenes ATCC8668; ATCC8668, 18 h",0.12 µg/mL
same,MIC,"VRE C6487; VRE, 18 h",> 32 µg/mL
same,MIC,"VRE C6488; VRE, 18 h",> 32 µg/mL
same,MIC,"MRSA C5100; MRSA, 18 h",2 µg/mL
same,MIC,"MRSA C6068; MRSA, 18 h",1 µg/mL
same,MIC,"MSSA C7142; MSSA, 18 h",2 µg/mL
same,MIC,"MRSA C2207; MRSA, 18 h",1 µg/mL
same,MIC,CRSA C6043; 18 h,2 µg/mL
same,MIC,CRSA C1062; 18 h,2 µg/mL
same,MIC,"MSSA C2214; MSSA, 18 h",1 µg/mL
"CC(=O)NC[C@H]1CN(c2ccc(N3CCOCC3)c(F)c2)C(=O)O1 [LZD, Linezolid, reference compound]",MIC,E. faecium C6301; [1],2 µg/mL
same,MIC,E. faecalis ATCC29212; [2],4 µg/mL
same,MIC,E. faecalis C6291; [3],2 µg/mL
same,MIC,S. epidermidis ATCC12228; [4],0.5 µg/mL
same,MIC,S. epidermidis C2230; [5],2 µg/mL
same,MIC,S. pyogenes C6003; [6],2 µg/mL
same,MIC,E. faecium C2252; [7],2 µg/mL
same,MIC,S. epidermidis C2235; [8],2 µg/mL
same,MIC,E. faecalis C6288; [9],2 µg/mL
same,MIC,S. pyogenes C6012; [10],0.5 µg/mL
same,MIC,S. pyogenes ATCC8668; [11],0.5 µg/mL
same,MIC,VRE C6487; [12],2 µg/mL
same,MIC,VRE C6488; [13],2 µg/mL
same,MIC,MRSA C5100; [14],2 µg/mL
same,MIC,MRSA C6068; [15],2 µg/mL
same,MIC,MSSA C7142; [16],4 µg/mL
same,MIC,MRSA C2207; [17],4 µg/mL
same,MIC,CRSA C6043; [18],2 µg/mL
same,MIC,CRSA C1062; [19],4 µg/mL
same,MIC,MSSA C2214; [20],4 µg/mL
